Where two headings read alike, the source gives them in different places.

Assay in all cases: DSF 100 kinase selectivity screen;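 note: compound tested at 20 µM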
What all share (type): binding

Assay [1] deals with T1, ~100 representative kinases (Homo sapiens, UniProt P49761).
T1 construct: Recombinant protein kinase domains with a concentration of 2 μM
The conditions noted are these: Protein CLK3; average of three replicates. A digest of the protocol: (§1)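 Each kinase domain, at 2 μM, is mixed with 20 μM test compound and SYPRO Orange in Hepes (20 mM, pH 7.5) with 500 mM NaCl. Temperature is then raised at 3°C/min and fluorescence-monitored unfolding yields the melting temperature change, ΔTm in degrees Celsius.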

The target of assay [2] is T2, ~100 representative kinases (Homo sapiens, UniProt P24941).
T2 construct: Recombinant protein kinase domains with a concentration of 2 μM
To be noted: Protein CDK2; average of three replicates. A digest of the protocol:
as §1

The target in assay [3] is T3, ~100 representative kinases (Homo sapiens, UniProt Q15375).
T3 construct: Recombinant protein kinase domains with a concentration of 2 μM
T3 sequence (Q15375 28-998): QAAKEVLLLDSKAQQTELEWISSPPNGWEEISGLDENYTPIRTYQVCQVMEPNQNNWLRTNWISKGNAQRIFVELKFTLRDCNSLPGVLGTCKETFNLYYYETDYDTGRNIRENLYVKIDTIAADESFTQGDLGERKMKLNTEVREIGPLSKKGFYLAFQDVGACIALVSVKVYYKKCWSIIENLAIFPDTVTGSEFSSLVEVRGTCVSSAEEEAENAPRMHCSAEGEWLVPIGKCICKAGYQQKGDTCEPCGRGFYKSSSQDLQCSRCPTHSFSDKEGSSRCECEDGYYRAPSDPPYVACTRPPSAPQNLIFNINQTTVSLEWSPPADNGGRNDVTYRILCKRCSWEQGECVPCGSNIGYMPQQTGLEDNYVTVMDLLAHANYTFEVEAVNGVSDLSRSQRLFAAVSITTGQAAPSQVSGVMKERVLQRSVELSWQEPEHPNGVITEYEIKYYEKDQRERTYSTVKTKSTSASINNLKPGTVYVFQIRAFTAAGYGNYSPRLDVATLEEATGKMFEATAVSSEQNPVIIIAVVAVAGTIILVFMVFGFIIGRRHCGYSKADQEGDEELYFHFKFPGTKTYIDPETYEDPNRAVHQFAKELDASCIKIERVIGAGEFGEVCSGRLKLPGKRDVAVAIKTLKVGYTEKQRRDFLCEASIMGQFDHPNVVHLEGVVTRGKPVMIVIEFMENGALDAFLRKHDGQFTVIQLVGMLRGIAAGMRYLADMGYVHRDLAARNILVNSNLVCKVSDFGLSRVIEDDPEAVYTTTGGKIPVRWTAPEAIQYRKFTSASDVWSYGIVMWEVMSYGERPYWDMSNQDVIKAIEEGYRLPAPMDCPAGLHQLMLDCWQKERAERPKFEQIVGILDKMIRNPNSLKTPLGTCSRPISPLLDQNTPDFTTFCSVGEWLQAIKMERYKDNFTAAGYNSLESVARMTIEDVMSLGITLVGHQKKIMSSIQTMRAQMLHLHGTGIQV
The conditions noted are these: Protein EPHA7; average of three replicates. In short, it runs like this: as §1

In assay [4] the target is T4, ~100 representative kinases (Homo sapiens, UniProt P52564).
T4 construct: Recombinant protein kinase domains with a concentration of 2 μM
T4 sequence (P52564 1-334): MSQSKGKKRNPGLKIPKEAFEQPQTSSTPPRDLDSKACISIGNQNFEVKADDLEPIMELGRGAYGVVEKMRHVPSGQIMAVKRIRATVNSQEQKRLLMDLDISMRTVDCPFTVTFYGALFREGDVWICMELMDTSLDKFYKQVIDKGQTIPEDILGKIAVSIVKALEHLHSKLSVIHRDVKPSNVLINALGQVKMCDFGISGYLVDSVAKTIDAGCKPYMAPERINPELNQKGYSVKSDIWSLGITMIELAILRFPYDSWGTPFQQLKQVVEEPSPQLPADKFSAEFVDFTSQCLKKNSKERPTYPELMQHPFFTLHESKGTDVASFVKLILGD
The conditions noted are these: protein MAP2K6; average of three replicates. A digest of the protocol: as §1

The target of assay [5] is T5, ~100 representative kinases (Homo sapiens, UniProt P54756).
T5 construct: Recombinant protein kinase domains with a concentration of 2 μM
To be noted: Protein EPHA5; average of three replicates. In short, it runs like this: as §1

The target of assay [6] is T6, ~100 representative kinases (Homo sapiens, UniProt P15056).
T6 construct: Recombinant protein kinase domains with a concentration of 2 μM
T6 sequence (P15056 whole entry, the tested form may be a part): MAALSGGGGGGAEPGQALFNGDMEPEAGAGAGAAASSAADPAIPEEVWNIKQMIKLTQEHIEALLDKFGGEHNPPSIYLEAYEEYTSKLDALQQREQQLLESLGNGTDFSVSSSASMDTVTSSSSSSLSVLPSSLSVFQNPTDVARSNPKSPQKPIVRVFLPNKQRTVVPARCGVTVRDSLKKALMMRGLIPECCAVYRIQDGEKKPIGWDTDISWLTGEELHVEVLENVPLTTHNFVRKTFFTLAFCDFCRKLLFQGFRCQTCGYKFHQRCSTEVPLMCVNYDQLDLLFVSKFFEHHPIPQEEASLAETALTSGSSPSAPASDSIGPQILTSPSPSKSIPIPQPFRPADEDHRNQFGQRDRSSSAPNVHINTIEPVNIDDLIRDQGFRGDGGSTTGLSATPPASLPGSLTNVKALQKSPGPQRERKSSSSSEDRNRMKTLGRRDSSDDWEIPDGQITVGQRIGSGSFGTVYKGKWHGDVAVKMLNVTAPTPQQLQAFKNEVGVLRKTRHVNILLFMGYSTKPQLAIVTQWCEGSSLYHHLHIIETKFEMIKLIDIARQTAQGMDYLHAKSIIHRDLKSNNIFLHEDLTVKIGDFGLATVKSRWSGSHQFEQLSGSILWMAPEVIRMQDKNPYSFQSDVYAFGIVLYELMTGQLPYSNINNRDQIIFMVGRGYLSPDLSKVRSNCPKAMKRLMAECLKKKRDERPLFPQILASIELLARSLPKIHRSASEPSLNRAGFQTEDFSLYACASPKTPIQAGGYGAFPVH
A digest of the protocol: as §1

For assay [7], the target named is T7, ~100 representative kinases (Homo sapiens, UniProt O14733).
T7 construct: Recombinant protein kinase domains with a concentration of 2 μM
T7 sequence (O14733 1-419): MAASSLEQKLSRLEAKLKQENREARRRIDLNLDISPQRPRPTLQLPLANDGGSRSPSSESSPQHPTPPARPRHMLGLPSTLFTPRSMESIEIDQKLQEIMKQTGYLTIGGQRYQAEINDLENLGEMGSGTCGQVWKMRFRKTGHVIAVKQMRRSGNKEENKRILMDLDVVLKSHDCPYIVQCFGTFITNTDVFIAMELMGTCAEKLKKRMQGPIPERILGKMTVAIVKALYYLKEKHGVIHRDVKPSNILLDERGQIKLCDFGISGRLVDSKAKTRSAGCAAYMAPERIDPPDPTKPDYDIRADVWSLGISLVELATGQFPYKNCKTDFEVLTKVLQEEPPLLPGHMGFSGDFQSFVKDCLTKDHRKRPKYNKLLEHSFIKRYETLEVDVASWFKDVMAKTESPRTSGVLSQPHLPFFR
The conditions noted are these: protein MAP2K7; average of three replicates. A digest of the protocol: as §1

Assay [8] deals with T8, ~100 representative kinases (Homo sapiens, UniProt O15075).
T8 construct: Recombinant protein kinase domains with a concentration of 2 μM
T8 sequence (O15075 whole entry, the tested form may be a part): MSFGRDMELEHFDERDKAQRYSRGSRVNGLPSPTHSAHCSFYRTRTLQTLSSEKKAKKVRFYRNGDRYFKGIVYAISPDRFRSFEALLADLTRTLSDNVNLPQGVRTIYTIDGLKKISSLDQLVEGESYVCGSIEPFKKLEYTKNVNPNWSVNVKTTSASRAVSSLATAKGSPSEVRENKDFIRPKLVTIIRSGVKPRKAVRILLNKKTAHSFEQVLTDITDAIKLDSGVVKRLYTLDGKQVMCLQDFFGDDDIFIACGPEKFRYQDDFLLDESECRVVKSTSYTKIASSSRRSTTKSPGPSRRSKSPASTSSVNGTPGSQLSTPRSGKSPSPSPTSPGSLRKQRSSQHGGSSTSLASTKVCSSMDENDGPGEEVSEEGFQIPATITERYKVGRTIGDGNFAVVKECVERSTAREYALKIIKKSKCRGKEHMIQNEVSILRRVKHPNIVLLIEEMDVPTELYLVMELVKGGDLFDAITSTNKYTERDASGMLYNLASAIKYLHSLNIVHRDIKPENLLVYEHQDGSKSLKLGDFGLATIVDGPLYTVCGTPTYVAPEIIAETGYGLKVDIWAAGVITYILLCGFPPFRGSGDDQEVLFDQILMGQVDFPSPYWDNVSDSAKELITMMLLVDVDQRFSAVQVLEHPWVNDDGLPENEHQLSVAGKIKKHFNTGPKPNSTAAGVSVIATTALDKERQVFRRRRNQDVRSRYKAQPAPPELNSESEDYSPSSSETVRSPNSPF
To be noted: Protein DCAMKL1; average of three replicates. In short, it runs like this: as §1

Assay [9] concerns the target T9, ~100 representative kinases (Homo sapiens, UniProt Q99640).
T9 construct: Recombinant protein kinase domains with a concentration of 2 μM
T9 sequence (Q99640 1-499): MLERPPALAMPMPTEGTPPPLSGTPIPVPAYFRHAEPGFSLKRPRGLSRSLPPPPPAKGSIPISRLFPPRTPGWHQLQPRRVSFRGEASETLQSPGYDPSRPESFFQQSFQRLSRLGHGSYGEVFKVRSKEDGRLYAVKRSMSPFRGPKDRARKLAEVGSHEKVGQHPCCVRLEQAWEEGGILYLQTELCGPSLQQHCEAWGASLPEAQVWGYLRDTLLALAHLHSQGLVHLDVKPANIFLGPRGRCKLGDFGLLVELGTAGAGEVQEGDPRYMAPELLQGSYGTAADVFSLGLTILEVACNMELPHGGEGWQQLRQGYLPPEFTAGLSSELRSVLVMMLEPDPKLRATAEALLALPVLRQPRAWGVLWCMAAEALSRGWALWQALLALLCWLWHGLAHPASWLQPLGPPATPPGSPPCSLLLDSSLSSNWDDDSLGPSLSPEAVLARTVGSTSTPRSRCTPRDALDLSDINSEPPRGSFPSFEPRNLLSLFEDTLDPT
The conditions noted are these: protein PKMYT1; average of three replicates. A digest of the protocol: as §1

Assay [10] concerns the target T10, ~100 representative kinases (Homo sapiens, UniProt P21802).
T10 construct: Recombinant protein kinase domains with a concentration of 2 μM
The conditions noted are these: protein FGFR2; average of three replicates. A digest of the protocol:
as §1

Assay [11] concerns the target T11, ~100 representative kinases (Homo sapiens, UniProt Q9H2X6).
T11 construct: Recombinant protein kinase domains with a concentration of 2 μM
The conditions noted are these: protein HIPK2; average of three replicates. A digest of the protocol: as §1

Assay [12] addresses T12, ~100 representative kinases (Homo sapiens, UniProt P49674).
T12 construct: Recombinant protein kinase domains with a concentration of 2 μM
The conditions noted are these: Protein CSNK1E; average of three replicates. In short, it runs like this:
as §1

Setting [13] is: Protein BRAF, average of three replicates.

T12 sequence (P49674 whole entry, the tested form may be a part): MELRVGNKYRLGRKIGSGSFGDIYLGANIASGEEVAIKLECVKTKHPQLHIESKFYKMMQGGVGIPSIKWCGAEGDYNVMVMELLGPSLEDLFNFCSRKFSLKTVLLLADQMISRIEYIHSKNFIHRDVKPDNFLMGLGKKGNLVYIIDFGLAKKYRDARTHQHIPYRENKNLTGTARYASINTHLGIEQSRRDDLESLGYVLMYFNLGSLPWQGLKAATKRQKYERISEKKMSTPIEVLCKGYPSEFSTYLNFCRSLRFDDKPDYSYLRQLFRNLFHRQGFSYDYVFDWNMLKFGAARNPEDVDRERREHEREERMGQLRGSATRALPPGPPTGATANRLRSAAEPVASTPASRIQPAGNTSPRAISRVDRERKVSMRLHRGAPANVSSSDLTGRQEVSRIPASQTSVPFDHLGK
T11 sequence (Q9H2X6 whole entry, the tested form may be a part): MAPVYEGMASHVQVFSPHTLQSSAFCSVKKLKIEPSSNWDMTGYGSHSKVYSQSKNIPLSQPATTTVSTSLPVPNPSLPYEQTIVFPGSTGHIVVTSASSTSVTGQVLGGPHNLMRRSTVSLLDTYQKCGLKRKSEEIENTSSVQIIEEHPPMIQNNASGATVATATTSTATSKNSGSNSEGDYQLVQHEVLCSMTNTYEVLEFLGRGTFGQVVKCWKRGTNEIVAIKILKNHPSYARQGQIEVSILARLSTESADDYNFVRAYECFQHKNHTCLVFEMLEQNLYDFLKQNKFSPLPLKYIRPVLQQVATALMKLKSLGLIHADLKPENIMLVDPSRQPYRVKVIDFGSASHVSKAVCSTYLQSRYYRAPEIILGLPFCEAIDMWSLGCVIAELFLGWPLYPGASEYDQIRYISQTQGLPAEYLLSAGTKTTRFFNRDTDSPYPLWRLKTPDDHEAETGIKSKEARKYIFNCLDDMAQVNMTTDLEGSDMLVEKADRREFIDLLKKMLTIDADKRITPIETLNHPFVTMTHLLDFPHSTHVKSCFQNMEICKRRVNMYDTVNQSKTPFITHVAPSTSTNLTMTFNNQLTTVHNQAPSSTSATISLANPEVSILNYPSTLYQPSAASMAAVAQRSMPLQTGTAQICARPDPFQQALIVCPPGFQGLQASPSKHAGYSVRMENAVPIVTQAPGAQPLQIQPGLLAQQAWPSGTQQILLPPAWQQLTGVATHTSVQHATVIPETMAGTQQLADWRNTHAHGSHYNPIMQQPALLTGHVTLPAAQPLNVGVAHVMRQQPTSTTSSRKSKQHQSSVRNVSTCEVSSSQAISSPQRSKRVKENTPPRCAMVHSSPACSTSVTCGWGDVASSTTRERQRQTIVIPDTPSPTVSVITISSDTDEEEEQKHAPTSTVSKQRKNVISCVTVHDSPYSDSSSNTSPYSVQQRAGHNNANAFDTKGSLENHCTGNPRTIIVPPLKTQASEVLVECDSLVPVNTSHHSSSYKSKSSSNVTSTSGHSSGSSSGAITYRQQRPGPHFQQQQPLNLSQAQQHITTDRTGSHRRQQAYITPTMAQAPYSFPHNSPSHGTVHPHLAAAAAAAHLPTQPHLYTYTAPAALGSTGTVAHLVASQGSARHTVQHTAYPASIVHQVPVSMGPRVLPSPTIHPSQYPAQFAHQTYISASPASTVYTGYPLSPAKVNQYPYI
T1 sequence (P49761 whole entry, the tested form may be a part): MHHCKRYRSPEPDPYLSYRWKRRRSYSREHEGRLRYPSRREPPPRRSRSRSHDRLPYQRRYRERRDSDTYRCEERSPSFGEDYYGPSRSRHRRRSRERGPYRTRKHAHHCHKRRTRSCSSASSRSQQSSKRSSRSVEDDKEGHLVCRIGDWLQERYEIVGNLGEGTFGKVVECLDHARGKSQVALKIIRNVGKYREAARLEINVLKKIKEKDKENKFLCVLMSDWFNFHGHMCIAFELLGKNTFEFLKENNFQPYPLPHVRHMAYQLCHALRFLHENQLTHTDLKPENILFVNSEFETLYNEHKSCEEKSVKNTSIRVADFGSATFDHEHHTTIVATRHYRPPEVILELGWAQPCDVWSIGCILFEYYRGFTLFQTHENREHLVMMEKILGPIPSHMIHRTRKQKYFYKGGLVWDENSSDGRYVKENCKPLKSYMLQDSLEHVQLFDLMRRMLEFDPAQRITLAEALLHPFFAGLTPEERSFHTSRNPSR

Turning to `Cc1ccc(C(=O)Nc2ccc(CN3CCN(C)CC3)c(C(F)(F)F)c2)cc1C#Cc1c[nH]c2ncnc(N3CCOCC3)c12` [Compound 1], the dTm in assay [1] was found to be 4.76 K; in assay [2], 3.53 K; in assay [3], 1.10 K; in assay [4] it was 3.80 K; in assay [5], 5.80 K; in assay [6] (setting [13]) it was 35.22 K. In addition, the dTm is reported as 4.67 K in assay [7]; -0.0556 K in [8]; 0.41 K in assay [9]; 4.16 K in assay [10]; 4.31 K in [11].
For the compound `O=C(Nc1ccc(F)cc1)C1(C(=O)Nc2cccc(-c3c[nH]c4ncnc(N5CCOCC5)c34)c2)CC1` [Compound 2], the dTm in assay [1] is recorded as 3.15 K; in assay [2], 4.78 K; in assay [12] it was 4.37 K; in assay [3], -1.78 K; in [4] it was 2.20 K; in [5], 3.27 K. The dTm in assay [6] (setting [13]) is on record as 9.50 K; in assay [7], 4.21 K; in [8], 1.25 K; in [9], -2.28 K; in assay [10] it was 2.43 K; in [11], 9.65 K.
`O=C(Nc1cccc(-c2c[nH]c3ncnc(N4CCOCC4)c23)c1)c1cccn(-c2ccc(F)cc2)c1=O` [Compound 4]: the dTm in assay [1] is listed as 2.86 K; in assay [2], 7.66 K; in [12] it was 7.33 K; in assay [3] it was -1.83 K; in [4] it was 2.38 K; in assay [5], 3.25 K. Besides, the dTm in assay [6] (setting [13]) stood at 8.03 K; in assay [7], 5.76 K; in assay [8], 0.57 K; in assay [9], 0.10 K; in assay [10], 5.86 K; in assay [11] it was 8.43 K.
For `Cc1cc(NC(=O)C2(C(=O)Nc3ccc(F)cc3)CC2)cc(-c2c[nH]c3ncnc(N4CCOCC4)c23)c1` [Compound 6], the dTm is 0.98 K in [1]; 2.92 K in [2]; 4.54 K in assay [12]; 1.69 K in [3]; 1.56 K in [4]; 2.48 K in assay [5]. For the same compound, the dTm in [6] (setting [13]) was 12.36 K; in assay [7], 1.34 K; in assay [8], 3.01 K; in assay [9], -0.19 K; in assay [10], 1.97 K; in assay [11], 0.87 K.
For `COc1cc2c(Oc3ccc(NC(=O)C4(C(=O)Nc5ccc(F)cc5)CC4)cc3F)ccnc2cc1OCCCN1CCOCC1` [Foretinib, reference compound], the dTm in [1] is reported as 3.35 K; in [2], 0.40 K; in assay [12] it was 3.48 K; in assay [3], -0.16 K; in assay [4], 2.25 K; in assay [5], 11.59 K. Further, the dTm in [6] (setting [13]) amounted to 6.96 K; in assay [8], 0.55 K; in assay [9], 0.92 K; in [10] it was 7.20 K; in assay [11], 4.61 K.
Take `CCNc1nc(Nc2cc(F)c(C(=O)N3CCOCC3)cc2OC)ncc1C(F)(F)F` [GNE-7915]: the dTm in assay [1] is reported as 1.84 K; in assay [2] it was 1.40 K; in assay [3] it was -0.20 K; in [4] it was 0.65 K; in [5], -0.45 K; in assay [6] (setting [13]) it was 1.48 K. Besides, the dTm was -0.22 K in assay [7]; 2.14 K in assay [8]; -0.40 K in [9]; 0.49 K in [10]; 0.82 K in assay [11].
On to `Cc1ccc(C(=O)Nc2ccc(CN3CCN(C)CC3)c(C(F)(F)F)c2)cc1C#Cc1cnc2[nH]ncc2c1` [GZD-824, reference compound], for which the dTm in assay [1] came out at 4.75 K; in [2] it was 4.99 K; in [3] it was 1.51 K; in assay [4], 0.96 K; in assay [5], 14.58 K; in assay [6] it was 38.00 K. Moreover, the dTm in assay [7] was found to be 4.88 K; in assay [8], 0.30 K; in assay [9], 0.44 K; in [10], 13.32 K; in [11], 1.22 K.
Regarding `C[C@@H]1CN(c2cc(-c3n[nH]c4ccc(OC5(C)CC5)cc34)ncn2)C[C@H](C)O1` [MLi2], the dTm is 3.51 K in assay [1]; -0.0213 K in assay [2]; 0.12 K in assay [3]; 0.18 K in assay [4]; -0.96 K in assay [5]; 0.50 K in [6] (setting [13]). The dTm is -0.41 K in assay [7]; 0.51 K in assay [8]; -0.55 K in assay [9]; -0.06 K in [10]; 0.22 K in assay [11].
Turning to `Cn1cc(-c2c[nH]c3ncnc(N4CCOCC4)c23)cc1C#N` [PFE-360], the dTm in [1] is given as 5.46 K; in [2], 0.68 K; in assay [3], -0.34 K; in assay [4] it was 1.09 K; in assay [5], -0.69 K; in assay [6] (setting [13]), 2.10 K. The dTm in [7] is given as 0.37 K; in assay [8], 0.62 K; in assay [9], 0.19 K; in assay [10] it was 0.89 K; in assay [11] it was 0.25 K.
For `Cc1ccc(C(=O)Nc2ccc(CN3CCN(C)CC3)c(C(F)(F)F)c2)cc1C#Cc1cnc2cccnn12` [Ponatinib, reference compound], the dTm is reported as 4.72 K in assay [2], 36.88 K in assay [6] (setting [13]), -0.27 K in assay [9] and 12.49 K in assay [10].
As to `CNC(=O)c1cc(Oc2ccc(NC(=O)Nc3cc(C(C)(C)C)nn3-c3ccc4ncccc4c3)c(F)c2)ccn1` [Rebastinib, reference compound], the dTm in assay [1] amounted to 8.68 K; in assay [2], 9.06 K; in assay [12] it was 0.33 K; in assay [3], 3.35 K; in assay [4], 0.26 K; in [5], 10.65 K. The dTm in [7] came to 2.63 K; in assay [8], 3.67 K; in assay [9], 0.77 K; in assay [10], 10.35 K.
For `CN[C@@H]1C[C@H]2O[C@@](C)([C@@H]1OC)n1c3ccccc3c3c4c(c5c6ccccc6n2c5c31)C(=O)NC4` [Staurosporine], the dTm in assay [3] is reported as 12.09 K; in assay [4], 12.80 K; in [7], 7.05 K; in assay [8], 12.74 K; in [11] it was 4.23 K.

Source of the values: article PMC12136037, “Type II kinase inhibitors that target Parkinson’s disease–associated LRRK2” (Science Advances, 2025).
